Assay results: patent US20220175722A1, “DEGRADERS OF FIBROBLAST GROWTH FACTOR RECEPTOR 2 (FGFR2)” (DANA-FARBER CANCER INSTITUTE, INC., priority 2019, published 2022)
Where two headings read alike, the source gives them in different places.

Key:
FGFR2 = experiment: Rescue of degrader-induced FGFR2 degradation by pretreatment, immunoblot in Kato III cells; format: cell-based; conditions: for rescue of FGFR2 degradation induced by bispecific compound 6: pretreated 2 h (10 μM BGJ398, 10 μM control-1, 0.5 M Bortezomib, 1 μM MLN4924), then 0.1 M bispecific compound 6 for 4 h; for rescue of FGFR2 degradation induced by bispecific compound 20: pretreated 2 h (10 μM FIIN2, 10 M control-1, 0.5 M Bortezomib, 1 μM MLN4924), then 1 M bispecific compound 20 for 4 h
Description: Kato III cells were pretreated with 10 μM BGJ398 (the parental compound and known FGFR1/2/3 inhibitor; available from, e.g., MedChemExpress®, Cat. No. HY-13311, Monmouth Junction, N.J.), 10 μM control-1 (VHL ligand), 0.5 M Bortezomib (a proteasome inhibitor; available from, e.g., Millipore Sigma®, Cat. No. 179324-69-7, Burlington, Mass.), and 1 μM MLN4924 (a neddylation inhibitor; available from, e.g., MedChemExpress®, Cat. No. HY-70062, Monmouth Junction, N.J.), for 2 h, and then treated with 0.1 M bispecific compound 6 for 4 h. Cells were lysed and immunoblotted as described above with antibodies to FGFR2 and β-Actin.
Kato III cells were pretreated with 10 μM FIIN2 (the parental compound and known FGFR1/2/3/4 inhibitor; available from, e.g., Selleckchem, Cat. No. S7714, Houston, Tex.), 10 M control-1 (VHL ligand), 0.5 M Bortezomib (a proteasome inhibitor; available from, e.g., Millipore Sigma, Cat. No. 179324-69-7, Burlington, Mass.), and 1 μM MLN4924 (a neddylation inhibitor; available from, e.g., MedChemExpress, Cat. No. HY-70062, Monmouth Junction, N.J.), for 2 h, and then treated with 1 M bispecific compound 20 for 4 h. Cells were lysed and immunoblotted as described above with antibodies to FGFR2 and β-Actin.

Kato III cells = experiment: cells; conditions: 72 h
Description: (§1) Kato III cells were treated with bispecific compound 6 or BGJ398 at the indicated concentrations for 72 h. Cell viability was determined using Cell-Titer Glo (Promega™) according to the manufacturer's instructions. IC50 values (defined as the concentration of compound needed to reduce cell viability to 50% of the vehicle DMSO control) were estimated by using GraphPad Prism 7.0 (GraphPad Prism®).
Cell viability was determined using Cell-Titer Glo (Promega™) according to the manufacturer's instructions. IC50 values were estimated by using GraphPad Prism 7.0 (GraphPad Prism®).
as §1, with “6, bispecific compound 7” for “6”, “(Promega™),” for “(Promega™)”

[1] = system: FGFR alteration (fusions, amplifications, or point mutations); conditions: cited from earlier work
CDK9 = target: T1, CDK9 (Homo sapiens, UniProt P50750); experiment: CDK9 degradation by immunoblot (positive control); format: cell-based; conditions: 16 hours
T1 construct: endogenous in cells; host or cells: Kato III; CCLP1; JHH7
T1 sequence (P50750 whole entry): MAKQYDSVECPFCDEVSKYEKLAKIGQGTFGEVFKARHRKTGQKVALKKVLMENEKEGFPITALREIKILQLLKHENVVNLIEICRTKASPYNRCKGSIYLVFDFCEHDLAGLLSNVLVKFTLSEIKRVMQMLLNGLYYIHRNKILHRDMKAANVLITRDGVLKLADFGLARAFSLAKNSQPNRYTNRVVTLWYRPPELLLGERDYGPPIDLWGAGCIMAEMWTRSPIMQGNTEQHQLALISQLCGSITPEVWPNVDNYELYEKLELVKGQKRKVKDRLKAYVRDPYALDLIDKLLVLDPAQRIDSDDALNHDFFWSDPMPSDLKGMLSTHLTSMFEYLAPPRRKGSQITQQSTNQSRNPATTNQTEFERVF
T1 sequence (O60563 whole entry partner): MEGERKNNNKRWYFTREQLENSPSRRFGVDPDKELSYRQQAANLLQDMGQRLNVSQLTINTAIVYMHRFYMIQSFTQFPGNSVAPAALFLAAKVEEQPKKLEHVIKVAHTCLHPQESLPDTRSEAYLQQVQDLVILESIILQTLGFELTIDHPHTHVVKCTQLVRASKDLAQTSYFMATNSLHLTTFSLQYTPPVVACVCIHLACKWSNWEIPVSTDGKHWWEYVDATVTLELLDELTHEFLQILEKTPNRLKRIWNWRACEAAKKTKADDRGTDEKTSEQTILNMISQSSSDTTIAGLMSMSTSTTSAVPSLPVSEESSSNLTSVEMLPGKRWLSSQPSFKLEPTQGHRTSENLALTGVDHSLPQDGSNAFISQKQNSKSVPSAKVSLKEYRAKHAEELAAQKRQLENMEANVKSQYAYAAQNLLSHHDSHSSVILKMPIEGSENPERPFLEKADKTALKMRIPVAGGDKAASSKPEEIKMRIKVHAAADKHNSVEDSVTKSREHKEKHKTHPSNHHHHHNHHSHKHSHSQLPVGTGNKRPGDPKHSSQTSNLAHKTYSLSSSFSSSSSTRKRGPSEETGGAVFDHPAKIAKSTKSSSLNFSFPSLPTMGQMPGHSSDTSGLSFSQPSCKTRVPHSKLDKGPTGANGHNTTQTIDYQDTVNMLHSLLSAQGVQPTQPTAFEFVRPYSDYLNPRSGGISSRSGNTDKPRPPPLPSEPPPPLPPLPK
Description: Kato III cells were treated with 0, 0.1, 1, or 10 M of bispecific compound 6 or 0.5 M THAL-SNS-032 (a known CDK9 degrader and positive control for CDK9 degradation; available from, e.g., MedChemExpress®, Cat. No. HY-10008, Monmouth Junction, N.J.) for 16 hours. Cells were then lysed in RIPA buffer (Millipore Sigma®) containing protease/phosphatase inhibitor cocktail (Roche®). The protein concentrations were measured by bicinchoninic acid assay (BCA) analysis (Pierce™). Equal amounts of protein were resolved by 4-12% Tris-Base gels (Invitrogen™), and then transferred to the Immuno-Blot PVDF membrane (Bio-Rad®), and immunoblotted with primary antibodies against FGFR2 (cell signaling), CDK9 (cell signaling) and […] (cell signaling), and then immunoblotted with IRDye®800-labeled goat anti-rabbit IgG and IRDye®800-labeled goat anti-mouse IgG (LI-COR®) secondary antibodies. The membranes were detected on Odyssey CLx system.
CCLP1 cells were treated with 0, 0.1, 1, or 10 M of bispecific compound 6 or 0.5 μM THAL-SNS-032 for 16 hours, and then lysed and immunoblotted with antibodies to FGFR1 (cell signaling), CDK9, and β-Actin.
JHH7 cells were treated with 0, 0.1, 1, or 10 M of bispecific compound 6 or 0.5 M THAL-SNS-032 for 16 hours, and then lysed and immunoblotted with antibodies to FGFR3 (cell signaling), FGFR4 (cell signaling), CDK9, and β-Actin.

[2] = patients with advanced refractory ICC with an FGFR alteration

With `CCN1CCN(c2ccc(Nc3cc(N(C)C(=O)Nc4c(Cl)c(OC)cc(OC)c4Cl)ncn3)cc2)CC1` [BGJ398] the “rescue of FGFR2 degradation induced by bispecific compound 6” value (from here on “rescue … by bispecific compound 6”) (FGFR2) was “rescued the FGFR2 degradation”, the IC50 (Kato III cells; Homo sapiens, KATO III, read-out: IC50 (concentration needed to reduce cell viability to 50% of the vehicle DMSO control)) was roughly 1 nM and the anti-proliferation effect (Kato III cells; Kato III cells) was “good anti-proliferation effect”. The “disease control rate (DCR; partial responses+stable disease)” value ([1]; FGFR2 fusions only) was 83.3%, the “overall response rate (ORR)” value ([1]; FGFR2 fusions only) was 18.8% and the “Median progression free survival” value [1, 2] was 5,8 months. For the same compound, the “disease control rate (DCR; partial responses+stable disease)” value [1, 2] was 75.4% and the “overall response rate (ORR)” value [1, 2] was 14.8%.

With `CC(C)C[C@H](NC(=O)[C@H](Cc1ccccc1)NC(=O)c1cnccn1)B(O)O` [Bortezomib] the “rescue … by bispecific compound 6” value (FGFR2) was “rescued the FGFR2 degradation” and the “rescue of FGFR2 degradation induced by bispecific compound 20” value (“rescue … by bispecific compound 20” below) (FGFR2) was “rescued the FGFR2 degradation”.

With `C=CC(=O)Nc1ccc(CN2C(=O)N(c3cc(OC)cc(OC)c3)Cc3cnc(Nc4ccc(N5CCN(C)CC5)cc4)nc32)cc1` [FIIN2] the “rescue … by bispecific compound 20” value (FGFR2) was “rescued the FGFR2 degradation”.

With `NS(=O)(=O)OC[C@@H]1C[C@@H](n2ccc3c(N[C@H]4CCc5ccccc54)ncnc32)C[C@@H]1O` [MLN4924] the “rescue … by bispecific compound 6” value (FGFR2) was “rescued the FGFR2 degradation” and the “rescue … by bispecific compound 20” value (FGFR2) was “rescued the FGFR2 degradation”.

With `CC(C)(C)c1cnc(CSc2cnc(NC(=O)C3CCN(CC(=O)NCCOCCOCCOCCNc4cccc5c4C(=O)N(C4CCC(=O)NC4=O)C5=O)CC3)s2)o1` (stereo not drawn) [THAL-SNS-032] the CDK9 degradation (CDK9; CCLP1 cells, 0.5 μM) was “induced CDK9 degradation”, the CDK9 degradation (CDK9; JHH7 cells, 0.5 µM) was “induces CDK9 degradation” and the CDK9 degradation (CDK9; Kato III cells, 0.5 µM) was “induced CDK9 degradation”.

With `CC(=O)N[C@H](C(=O)N1C[C@H](O)C[C@H]1C(=O)N[C@@H](C)c1ccc(-c2scnc2C)cc1)C(C)(C)C` [control-1] the “rescue … by bispecific compound 6” value (FGFR2) was “rescued the FGFR2 degradation” and the “rescue … by bispecific compound 20” value (FGFR2) was “rescued the FGFR2 degradation”.
